Reference: patent publication US12318452B2, “Degraders of WEE1 kinase” (DANA-FARBER CANCER INSTITUTE, INC., priority 2018, dated 2025)

The molecules below were run against Wee1 (Homo sapiens, UniProt P30291) (assay: Cellular degradation of Wee1 by immunoblot, 6-hour treatment of MOLT4 cells). Details: MOLT4 cells, immunoblot.
Format: cell-based
Set-up: endogenous in cells; host or cells: MOLT4 (wild type; CRBN-/- as control)
Protocol: General Protocol: HT-29, MOLT4 wild type (WT) or CRBN^-/- cells were plated in a 6 well plate and treated for 6 hours with the indicated concentrations of the inventive compounds and control. HT-29 cells were cultured in McCoy's Media supplemented with 10% FBS and 1% Penicillin/Streptomycin. MOLT4 WT and CRBN^-/- cells were cultured in Roswell Park Memorial Institute (RPMI) medium supplemented with 10% FBS and 1% Penicillin/Streptomycin. Mycoplasma testing was performed every month and all lines were negative. Immunoblotting: Cells were washed with phosphate-buffered saline (PBS) and then lysed using radioimmunoprecipitation assay (RIPA) buffer supplemented with protease and phosphatase inhibitor cocktail (Roche) on ice for 15 minutes. The lysates were centrifuged at 14,000 rpm for 15 minutes at 4° C. and protein was quantified by bicinchoninic acid (BCA) assay (PierceTM). Primary antibodies used include: Wee1 ([…]) (Cell Signaling Technology®, 13084S), polo-like kinase 1 (PLK1) (Thermo Fisher Scientific, 37-7000), phosphor-cdc2 (Y15) (10A11) (Cell Signaling Technology®, […]), phospho-histone H3 ([…]) (Cell Signaling Technology®, […]), Ikaros ([…]) (Cell Signaling Technology®, 14859S), Aiolos ([…]) (Cell Signaling Technology®, 15103), casein kinase 1 alpha (Abcam®, 108296), β-actin (Cell Signaling Technology®, 8H10D10). FIG. 2A is an immunoblot showing that compound 13 degraded Wee1 after a 6-hour treatment in MOLT4 cells, and induced the downstream changes expected from Wee1 loss-including a decrease in phosphorylated cyclin-dependent kinase 1 (pCDK1) (Y15) and an increase in pH 3. […] Degradation of Wee1 by compound 13 was rescued in MOLT4 CRBN^-/- cells. MOLT4 WT and CRBN^-/- cells were plated in a 6-well plate at 2.25 million cells per well in 3 mL media (RPMI+10% FBS+1% Penn/Strep). After treatment with the indicated concentrations of candidate compounds, cells were incubated for 6 hours at 37° C. 5% CO2. To harvest, the cells were washed 1× with cold PBS, then collected by centrifugation. Cell pellets were lysed in RIPA buffer with protease and phosphatase inhibitors (Roche). Lysates were clarified by centrifugation, and protein concentrations were normalized using a BCA assay (Thermo ScientificTM). The samples were diluted with 4×LDS+10% β-mercaptoethanol, and were boiled at 95° C. for 5 minutes. Proteins of interest were then assessed by western blotting. […] The experimental protocol was the same as in Example 28.

Wee1, sequence (P30291 whole entry): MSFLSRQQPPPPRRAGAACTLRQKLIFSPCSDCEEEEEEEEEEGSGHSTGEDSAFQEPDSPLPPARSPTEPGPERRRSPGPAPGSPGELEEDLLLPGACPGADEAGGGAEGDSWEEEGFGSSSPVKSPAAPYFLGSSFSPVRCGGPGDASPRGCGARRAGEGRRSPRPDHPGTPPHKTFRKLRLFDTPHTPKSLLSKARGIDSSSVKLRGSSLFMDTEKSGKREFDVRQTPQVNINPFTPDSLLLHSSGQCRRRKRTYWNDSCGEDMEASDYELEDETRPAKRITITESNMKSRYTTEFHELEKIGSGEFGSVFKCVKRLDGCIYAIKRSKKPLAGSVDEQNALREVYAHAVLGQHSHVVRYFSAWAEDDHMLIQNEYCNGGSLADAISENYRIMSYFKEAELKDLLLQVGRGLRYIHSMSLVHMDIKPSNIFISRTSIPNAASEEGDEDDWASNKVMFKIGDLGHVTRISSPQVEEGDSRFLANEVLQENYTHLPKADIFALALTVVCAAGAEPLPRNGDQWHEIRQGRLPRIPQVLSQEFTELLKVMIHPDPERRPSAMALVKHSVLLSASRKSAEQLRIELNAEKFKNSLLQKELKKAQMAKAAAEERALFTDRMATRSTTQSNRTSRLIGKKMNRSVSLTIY

Wee1 degradation	Structure (SMILES)
Degradation of Wee1 was also observed	C=CCn1c(=O)c2cnc(Nc3ccc(N4CCN(CCCCCC(=O)N[C@H](C(=O)N5C[C@H](O)C[C@H]5C(=O)N[C@@H](C)c5ccc(-c6scnc6C)cc5)C(C)(C)C)CC4)cc3)nc2n1-c1cccc(C(C)(C)O)n1 [Compound 21, tert-butyl (2S,4R)-1-((S)-2-(6-(4-(4-((2-allyl-1-(6-(2-hydroxypropan-2-yl)pyridin-2-yl)-3-oxo-2,3-dihydro-1H-pyrazolo[3,4-d]pyrimidin-6-yl)amino)phenyl)piperazin-1-yl)hexanamido)-3,3-dimethylbutanoyl)-4-hydroxy-N—((S)-1-(4-(4-methylthiazol-5-yl)phenyl)ethyl)pyrrolidine-2-carboxamide]

Same assay, conditions: MOLT-4, 1 μM, MOLT4 cells, approximated by immunoblot, read-out: Extent of Degradation of Wee1

Structure (SMILES)	percent Wee1 degradation at 1 µM
C=CCn1c(=O)c2cnc(Nc3ccc(N4CCN(C(=O)CCOCCOCCOCCOCCNc5cccc6c5C(=O)N(C5CCC(=O)NC5=O)C6=O)CC4)cc3)nc2n1-c1cccc(C(C)(C)O)n1 (centres unmarked) [Compound 1, 4-((15-(4-(4-((2-allyl-1-(6-(2-hydroxypropan-2-yl)pyridin-2-yl)-3-oxo-2,3-dihydro-1H-pyrazolo[3,4-d]pyrimidin-6-yl)amino)phenyl)piperazin-1-yl)-15-oxo-3,6,9,12-tetraoxapentadecyl)amino)-2-(2,6-dioxopiperidin-3-yl)isoindoline-1,3-dione]	< 25%
C=CCn1c(=O)c2cnc(Nc3ccc(N4CCN(C(=O)CCOCCOCCNc5cccc6c5C(=O)N(C5CCC(=O)NC5=O)C6=O)CC4)cc3)nc2n1-c1cccc(C(C)(C)O)n1 (centres unmarked) [Compound 3, 4-((2-(2-(3-(4-(4-((2-allyl-1-(6-(2-hydroxypropan-2-yl)pyridin-2-yl)-3-oxo-2,3-dihydro-1H-pyrazolo[3,4-d]pyrimidin-6-yl)amino)phenyl)piperazin-1-yl)-3-oxopropoxy)ethoxy)ethyl)amino)-2-(2,6-dioxopiperidin-3-yl)isoindoline-1,3-dione]	> 50%
C=CCn1c(=O)c2cnc(Nc3ccc(N4CCN(C(=O)CCOCCOCCNc5cccc6c5CN(C5CCC(=O)NC5=O)C6=O)CC4)cc3)nc2n1-c1cccc(C(C)(C)O)n1 (centres unmarked) [Compound 4, 3-(4-((2-(2-(3-(4-(4-((2-allyl-1-(6-(2-hydroxypropan-2-yl)pyridin-2-yl)-3-oxo-2,3-dihydro-1H-pyrazolo[3,4-d]pyrimidin-6-yl)amino)phenyl)piperazin-1-yl)-3-oxopropoxy)ethoxy)ethyl)amino)-1-oxoisoindolin-2-yl)piperidine-2,6-dione]	25 to 50%
C=CCn1c(=O)c2cnc(Nc3ccc(N4CCN(C(=O)CCOCCNc5cccc6c5C(=O)N(C5CCC(=O)NC5=O)C6=O)CC4)cc3)nc2n1-c1cccc(C(C)(C)O)n1 (centres unmarked) [Compound 5, 4-((2-(3-(4-(4-((2-allyl-1-(6-(2-hydroxypropan-2-yl)pyridin-2-yl)-3-oxo-2,3-dihydro-1H-pyrazolo[3,4-d]pyrimidin-6-yl)amino)phenyl)piperazin-1-yl)-3-oxopropoxy)ethyl)amino)-2-(2,6-dioxopiperidin-3-yl)isoindoline-1,3-dione]	> 50%
C=CCn1c(=O)c2cnc(Nc3ccc(N4CCN(C(=O)CCCCCCCCOc5cccc6c5C(=O)N(C5CCC(=O)NC5=O)C6=O)CC4)cc3)nc2n1-c1cccc(C(C)(C)O)n1 (centres unmarked) [Compound 6, 4-((9-(4-(4-((2-allyl-1-(6-(2-hydroxypropan-2-yl)pyridin-2-yl)-3-oxo-2,3-dihydro-1H-pyrazolo[3,4-d]pyrimidin-6-yl)amino)phenyl)piperazin-1-yl)-9-oxononyl)oxy)-2-(2,6-dioxopiperidin-3-yl)isoindoline-1,3-dione]	25 to 50%
C=CCn1c(=O)c2cnc(Nc3ccc(N4CCN(CCCNC(=O)CCOCCOCCOCCOCCNc5cccc6c5C(=O)N(C5CCC(=O)NC5=O)C6=O)CC4)cc3)nc2n1-c1cccc(C(C)(C)O)n1 (centres unmarked) [Compound 8, N-(3-(4-(4-((2-allyl-1-(6-(2-hydroxypropan-2-yl)pyridin-2-yl)-3-oxo-2,3-dihydro-1H-pyrazolo[3,4-d]pyrimidin-6-yl)amino)phenyl)piperazin-1-yl)propyl)-1-((2-(2,6-dioxopiperidin-3-yl)-1,3-dioxoisoindolin-4-yl)amino)-3,6,9,12-tetraoxapentadecan-15-amide]	> 50%

Continued, values first:

percent Wee1 degradation at 1 µM	Structure (SMILES)
> 50%	C=CCn1c(=O)c2cnc(Nc3ccc(N4CCN(C(=O)CCOCCOCCOCCN5CCN(Cc6ccc(COc7cccc8c7CN([C@H]7CCC(=O)NC7=O)C8=O)cc6)CC5)CC4)cc3)nc2n1-c1cccc(C(C)(C)O)n1 [Compound 9, (S)-3-(4-((4-((4-(2-(2-(2-(3-(4-(4-((2-allyl-1-(6-(2-hydroxypropan-2-yl)pyridin-2-yl)-3-oxo-2,3-dihydro-1H-pyrazolo[3,4-d]pyrimidin-6-yl)amino)phenyl)piperazin-1-yl)-3-oxopropoxy)ethoxy)ethoxy)ethyl)piperazin-1-yl)methyl)benzyl)oxy)-1-oxoisoindolin-2-yl)piperidine-2,6-dione]
25 to 50%	C=CCn1c(=O)c2cnc(Nc3ccc(N4CCN(CCCNC(=O)CCOCCOCCOCCN5CCN(Cc6ccc(COc7cccc8c7CN([C@H]7CCC(=O)NC7=O)C8=O)cc6)CC5)CC4)cc3)nc2n1-c1cccc(C(C)(C)O)n1 [Compound 10, (S)—N-(3-(4-(4-((2-Allyl-1-(6-(2-hydroxypropan-2-yl)pyridin-2-yl)-3-oxo-2,3-dihydro-1H-pyrazolo[3,4-d]pyrimidin-6-yl)amino)phenyl)piperazin-1-yl)propyl)-3-(2-(2-(2-(4-(4-(((2-(2,6-dioxopiperidin-3-yl)-1-oxoisoindolin-4-yl)oxy)methyl)benzyl)piperazin-1-yl)ethoxy)ethoxy)ethoxy)propanamide]
25 to 50%	C=CCn1c(=O)c2cnc(Nc3ccc(N(C)CCCCNc4cccc5c4C(=O)N(C4CCC(=O)NC4=O)C5=O)cc3)nc2n1-c1cccc(C(C)(C)O)n1 (centres unmarked) [Compound 15, 4-((4-((4-((2-Allyl-1-(6-(2-hydroxypropan-2-yl)pyridin-2-yl)-3-oxo-2,3-dihydro-1H-pyrazolo[3,4-d]pyrimidin-6-yl)amino)phenyl)(methyl)amino)butyl)amino)-2-(2,6-dioxopiperidin-3-yl)isoindoline-1,3-dione]
> 50%	C=CCn1c(=O)c2cnc(Nc3ccc(N(C)CCCCNc4ccc5c(c4)C(=O)N(C4CCC(=O)NC4=O)C5=O)cc3)nc2n1-c1cccc(C(C)(C)O)n1 (centres unmarked) [Compound 16, 5-((4-((4-((2-Allyl-1-(6-(2-hydroxypropan-2-yl)pyridin-2-yl)-3-oxo-2,3-dihydro-1H-pyrazolo[3,4-d]pyrimidin-6-yl)amino)phenyl)(methyl)amino)butyl)amino)-2-(2,6-dioxopiperidin-3-yl)isoindoline-1,3-dione]
> 50%	C=CCn1c(=O)c2cnc(Nc3ccc(N4CCN(CCCNc5cccc6c5C(=O)N(C5CCC(=O)NC5=O)C6=O)CC4)cc3)nc2n1-c1cccc(OC)n1 (centres unmarked) [Compound 17, 4-((3-(4-(4-((2-Allyl-1-(6-methoxypyridin-2-yl)-3-oxo-2,3-dihydro-1H-pyrazolo[3,4-d]pyrimidin-6-yl)amino)phenyl)piperazin-1-yl)propyl)amino)-2-(2,6-dioxopiperidin-3-yl)isoindoline-1,3-dione]
> 50%	C=CCn1c(=O)c2cnc(Nc3ccc(N4CCN(CCCNc5cccc6c5C(=O)N(C5CCC(=O)NC5=O)C6=O)CC4)cc3)nc2n1-c1cccc(C(F)(F)F)n1 (centres unmarked) [Compound 18, 4-((3-(4-(4-((2-Allyl-3-oxo-1-(6-(trifluoromethyl)pyridin-2-yl)-2,3-dihydro-1H-pyrazolo[3,4-d]pyrimidin-6-yl)amino)phenyl)piperazin-1-yl)propyl)amino)-2-(2,6-dioxopiperidin-3-yl)isoindoline-1,3-dione]
< 25%	C=CCn1c(=O)c2cnc(Nc3ccc(N4CCN(CCCCCC(=O)N[C@H](C(=O)N5C[C@H](O)C[C@H]5C(=O)N[C@@H](C)c5ccc(-c6scnc6C)cc5)C(C)(C)C)CC4)cc3)nc2n1-c1cccc(C(C)(C)O)n1 [Compound 21, tert-butyl (2S,4R)-1-((S)-2-(6-(4-(4-((2-allyl-1-(6-(2-hydroxypropan-2-yl)pyridin-2-yl)-3-oxo-2,3-dihydro-1H-pyrazolo[3,4-d]pyrimidin-6-yl)amino)phenyl)piperazin-1-yl)hexanamido)-3,3-dimethylbutanoyl)-4-hydroxy-N—((S)-1-(4-(4-methylthiazol-5-yl)phenyl)ethyl)pyrrolidine-2-carboxamide]
